Data from patent US20160159814A1, “GLYCINE TRANSPORTER INHIBITOR” (TAISHO PHARMACEUTICAL CO., LTD., priority 2013, published 2016).

These molecules were tested against T1, human type 1 glycine transporter (GlyT1) (Homo sapiens, UniProt P48067) (assay: Glycine uptake inhibition experiment ([3H] glycine uptake in T98G cells expressing GlyT1)). Conditions: not given.
T1 construct: T98G cells (glioma cells) expressing human type 1 glycine transporter (GlyT1) were used; endogenous in cells; host or cells: T98G cells (human glioma cells)
T1 sequence (P48067 1-706): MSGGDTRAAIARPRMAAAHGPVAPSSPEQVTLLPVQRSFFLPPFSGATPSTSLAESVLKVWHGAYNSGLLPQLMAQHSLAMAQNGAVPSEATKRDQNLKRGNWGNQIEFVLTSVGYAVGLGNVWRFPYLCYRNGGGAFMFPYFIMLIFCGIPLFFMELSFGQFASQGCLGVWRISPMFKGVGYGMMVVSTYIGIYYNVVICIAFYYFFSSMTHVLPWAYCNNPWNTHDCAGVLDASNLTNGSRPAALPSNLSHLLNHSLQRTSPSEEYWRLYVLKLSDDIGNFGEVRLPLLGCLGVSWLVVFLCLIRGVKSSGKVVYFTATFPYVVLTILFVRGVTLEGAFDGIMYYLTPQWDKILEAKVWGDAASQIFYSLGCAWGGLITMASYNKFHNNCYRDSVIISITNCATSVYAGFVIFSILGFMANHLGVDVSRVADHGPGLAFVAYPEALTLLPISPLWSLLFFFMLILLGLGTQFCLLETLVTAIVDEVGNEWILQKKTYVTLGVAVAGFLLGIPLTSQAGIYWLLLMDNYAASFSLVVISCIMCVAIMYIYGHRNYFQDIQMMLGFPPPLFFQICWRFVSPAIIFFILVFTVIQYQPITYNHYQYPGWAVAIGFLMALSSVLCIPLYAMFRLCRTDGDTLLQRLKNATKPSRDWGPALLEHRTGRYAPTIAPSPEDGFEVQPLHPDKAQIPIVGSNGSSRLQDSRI
Type: cell-based
How it was run: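 T98G glioma cells expressing human GlyT1 were pretreated 10 min with compound in HEPES buffer pH 7.4 (0.2% BSA), then incubated with compound plus 250 nM final [3H]glycine for 15 min at room temperature. Intracellular radioactivity was counted after NaOH lysis; 10 μM ALX5407 defined non-specific uptake. IC50 came from 10^−9–10^−5 M curves.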

| SMILES | IC50 |
| --- | --- |
| C[C@H](O)c1cccc2c1C(F)(F)C(=O)N2Cc1ccncc1F [Compound 163, 3,3-difluoro-1-[(3-fluoropyridin-4-yl)methyl]-4-[(1S)-1-hydroxyethyl]-1,3-dihydro-2H-indol-2-one] | 410 nM |
| C[C@H](O)c1cccc2c1C(F)(F)C(=O)N2Cc1ncc(C(F)(F)F)cc1Cl [Compound 221, 1-{[3-chloro-5-(trifluoromethyl)pyridin-2-yl]methyl)-3,3-difluoro-4-[(1S)-1-hydroxyethyl]-1,3-dihydro-2H-indol-2-one] | 33 nM |
| C[C@H](O)c1cccc2c1C(F)(F)C(=O)N2Cc1ccc(F)c(C#N)n1 [Compound 236, 6-({3,3-difluoro-4-[(1S)-1-hydroxyethyl]-2-oxo-2,3-dihydro-1H-indol-1-yl}methyl)-3-fluoropyiidine-2-carbonitrile] | 4 nM |
| C[C@H](O)c1cccc2c1C(F)(F)C(=O)N2Cc1cc(C#N)ncc1Cl [Compound 195, 5-chloro-4-({3,3-difluoro-4-[(1S)-1-hydroxyethyl]-2-oxo-2,3-dihydro-1H-indol-1-yl}methyl)pyridine-2-carbonitrile] | 42 nM |
| O=C1N(Cc2nc3cc(F)ccc3o2)c2cccc(C(O)C(F)F)c2C1(F)F (single isomer, unassigned) [Compound 171, 4-(2,2-difluoro-1-hydroxyethyl)-3,3-difluoro-1-[(5-fluoro-1,3-benzoxazol-2-yl)methyl]-1,3-dihydro-2H-indol-2-one] | 170 nM |
| O=C1N(Cc2cncc(C3CC3)c2)c2cccc(C(O)C(F)F)c2C1(F)F (single isomer, unassigned) [Compound 179, 1-[(5-cyclopropylpyridin-3-yl)methyl]-4-(2,2-difluoro-1-hydroxyethyl)-3,3-difluoro-1,3-dihydro-2H-indol-2-one] | 480 nM |
| C[C@H](O)c1cccc2c1C(F)(F)C(=O)N2Cc1ccc(Cl)nc1C#N [Compound 248, 6-chloro-3-({3,3-difluoro-4-[(1S)-1-hydroxyethyl]-2-oxo-2,3-dihydro-1H-indol-1-yl}methyl)pyridine-2-carbonitrile] | 1200 nM |
| C[C@H](O)c1ccc(F)c2c1C(F)(F)C(=O)N2Cc1ccnc(C#N)c1 [Compound 277, 4-({3,3,7-trifluoro-4-[(1S)-1-hydroxyethyl]-2-oxo-2,3-dihydro-1H-indol-1-yl}methyl)pyridine-2-carbonitrile] | 14 nM |
| COc1cc(CN2C(=O)C(F)(F)c3c([C@H](C)O)cccc32)cnc1F [Compound 240, 3,3-difluoro-1-[(6-fluoro-6-methoxypyridin-3-yl)methyl]-4-[(1S)-1-hydroxyethyl]-1,3-dihydro-2H-indol-2-one] | 60 nM |
| C[C@H](O)c1cccc2c1C(F)(F)C(=O)N2Cc1cnc(F)c(Br)c1 [Compound 228, 1-[(5-bromo-6-fluoropyridin-3-yl)methyl]-3,3-difluoro-4-[(1S)-1-hydroxyethyl]-1,3-dihydro-2H-indol-2-one] | 2.1 nM |
| C[C@H](O)c1cccc2c1C(F)(F)C(=O)N2Cc1ccc(-n2ccnn2)nc1 [Compound 197, 3,3-difluoro-4-[(1S)-1-hydroxyethyl]-1-{[6-(1H-1,2,3-triazol-1-yl)pyridin-3-yl]methyl)-1,3-dihydro-2H-indol-2-one] | 6700 nM |

Same assay, conditions: glycine uptake inhibition

| SMILES | IC50 |
| --- | --- |
| O=C1N(Cc2ccccc2)c2cccc(C(O)C(F)F)c2C1(F)F (single isomer, unassigned) [Compound 157, 1-benzyl-4-(2,2-difluoro-1-hydroxyethyl)-3,3-difluoro-1,3-dihydro-2H-indol-2-one] | 21 nM |
| C[C@H](O)c1cccc2c1C(F)(F)C(=O)N2Cc1noc2ccccc12 [Compound 119, 1-(1,2-benzoxazol-3-ylmethyl)-3,3-difluoro-4-[(1S)-1-hydroxyethyl]-1,3-dihydro-2H-indol-2-one] | 77 nM |
| C[C@H](O)c1cccc2c1C(F)(F)C(=O)N2Cc1ccc2ncccc2n1 [Compound 78, 3,3-difluoro-4-[(1S)-1-hydroxyethyl]-1-(1,5-naphthyridin-2-ylmethyl)-1,3-dihydro-2H-indol-2-one] | 320 nM |
| C[C@H](O)c1cccc2c1C(F)(F)C(=O)N2Cc1ccc(C#N)cn1 [Compound 113, 6-({3,3-difluoro-4-[(1S)-1-hydroxyethyl]-2-oxo-2,3-dihydro-1H-indol-1-yl}methyl)pyridine-3-carbonitrile] | 940 nM |
| O=C1N(Cc2cccc(Cl)n2)c2cccc(C(O)C(F)(F)F)c2C1(F)F (single isomer, unassigned) [Compound 8, 1-[(6-chloropyridin-2-yl)methyl]-3,3-difluoro-4-(2,2,2-trifluoro-1-hydroxyethyl)-1,3-dihydro-2H-indol-2-one] | 800 nM |
| C[C@H](O)c1cccc2c1C(F)(F)C(=O)N2Cc1ccnc(C(F)(F)F)c1 [Compound 86, 3,3-difluoro-4-[(1S)-1-hydroxyethyl]-1-{[2-(trifluoromethyl)pyridin-4-yl]methyl}-1,3-dihydro-2H-indol-2-one] | 24 nM |
| O=C1N(Cc2ccnc(Cl)c2)c2cccc([C@@H](O)C(F)(F)F)c2C1(F)F [Compound 32, 1-[(2-chloropyridin-4-yl)methyl]-3,3-difluoro-4-[(1R)-2,2,2-trifluoro-1-hydroxyethyl]-1,3-dihydro-2H-indol-2-one] | 38 nM |
| CC(c1cccc(Cl)n1)N1C(=O)C(F)(F)c2c([C@H](C)O)cccc21 (single isomer, unassigned) [Compound 53] | 140 nM |
| C[C@H](O)c1cccc2c1C(F)(F)C(=O)N2Cc1nc2ccccc2[nH]1 [Compound 88, 1-(1H-benzimidazol-2-ylmethyl)-3,3-difluoro-4-[(1S)-1-hydroxyethyl)-1,3-dihydro-2H-indol-2-one] | 87 nM |
| C[C@H](O)c1cccc2c1C(F)(F)C(=O)N2Cc1cc(C(F)F)ccn1 [Compound 122, 1-{[4-(difluoromethyl)pyridin-2-yl]methyl}-3,3-difluoro-4-{(1S)-1-hydroxyethyl]-1,3-dihydro-2H-indol-2-one] | 220 nM |
| Cn1c(=O)c(CN2C(=O)C(F)(F)c3c([C@@H](O)C(F)(F)F)cccc32)nc2ccccc21 [Compound 141, 3-({3,3-difluoro-2-oxo-4-[(1R)-2,2,2-trifluoro-1-hydroxyethyl]-2,3-dihydro-1H-indol-1-yl}methyl)-1-methylquinoxalin-2(1H)-one] | 100 nM |
| C[C@H](O)c1cccc2c1C(F)(F)C(=O)N2Cc1cc(F)ccn1 [Compound 97, 3,3-difluoro-1-[(4-fluoropyridin-2-yl)methyl]-4-[(1S)-1-hydroxyethyl]-1,3-dihydro-2H-indol-2-one] | 91 nM |
| C[C@H](O)c1cccc2c1C(F)(F)C(=O)N2Cc1cccc(F)c1 [Compound 56, 3,3-difluoro-1-(3-fluorobenzyl)-4-[(1S)-1-hydroxyethyl)-1,3-dihydro-2H-indol-2-one] | 9.1 nM |
| C[C@H](O)c1cccc2c1C(F)(F)C(=O)N2Cc1ccc2nccnc2c1 [Compound 46, 3,3-difluoro-4-[(1S)-1-hydroxyethyl]-1-(quinoxalin-6-ylmethyl)-1,3-dihydro-2H-indol-2-one] | 140 nM |
| O=C1N(Cc2cccc(Cl)n2)c2cccc(C(O)CF)c2C1(F)F (stereo not shown) [Compound 11, 1-[(6-chloropyridin-2-yl)methyl]-3,3-difluoro-4-(2-fluoro-1-hydroxyethyl)-1,3-dihydro-2H-indol-2-one] | 17 nM |
| C[C@H](O)c1cccc2c1C(F)(F)C(=O)N2Cc1cnc2ccccc2c1 [Compound 74, 3,3-difluoro-4-[(1S)-1-hydroxyethyl)-1-(quinolin-3-ylmethyl)-1,3-dihydro-2H-indol-2-one] | 39 nM |
| C[C@H](O)c1cccc2c1C(F)(F)C(=O)N2Cc1ccc(C(F)F)nc1 [Compound 130, 1-{[6-(difluoromethyl)pyridin-3-yl]methyl}-3,3-difluoro-4-[(1S)-1-hydroxyethyl]-1,3-dihydro-2H-indol-2-one] | 400 nM |
| C[C@H](O)c1cccc2c1C(F)(F)C(=O)N2Cc1cncc(Cl)n1 [Compound 72, 1-[(6-chloropyrazin-2-yl)methyl]-3,3-difluoro-4-[(1S)-1-hydroxyethyl]-1,3-dihydro-2H-indol-2-one] | 12 nM |

Same assay, conditions: table section whose head prints (μm)

| SMILES | IC50 |
| --- | --- |
| O=C1N(Cc2ccc(F)c(Cl)n2)c2cccc(C(O)C(F)F)c2C1(F)F (single isomer, unassigned) [Compound 263, 1-[(6-chloro-5-fluoropyridin-2-yl)methyl]-4-(2,2-difluoro-1-hydroxyethyl)-3,3-difluoro-1,3-dihydro-2H-indol-2-one] | 11 nM |
| O=C1N(Cc2cccc(C(F)(F)F)n2)c2cccc(C(O)C(F)F)c2C1(F)F (single isomer, unassigned) [Compound 257, 4-(2,2-difluoro-1-hydroxyethyl)-3,3-difluoro-1-{[6-(trifluoromethyl)pyridin-2-yl]methyl)-1,3-dihydro-2H-indol-2-one] | 110 nM |
